From US20220339122A1, “METHODS FOR THE TREATMENT OF DISEASES ASSOCIATED WITH DYSREGULATED ACTIVATION AND RECRUITMENT OF NEUTROPHILS” (Chang Gung University, priority 2021, published 2022)
pIC50: −log10 of the molar value.

What was measured:
CD11b (integrin αM) = experiment: Surface CD11b expression, flow cytometry; assay type: cell-based, human
Procedure: Neutrophils (5×10^5 cells/mL) were incubated with bletinib or DMSO for 5 min and then activated through incubation with 0.1 μM fMLF/1 μg/mL CB for 5 min. After centrifugation at 200×g for 8 min at 4° C., the cells were resuspended in 5% bovine serum albumin with FITC-conjugated antibodies against CD18 or CD11b on ice in the dark for 15 min. The fluorescent intensity was then analysed through fluorescence-activated cell sorting.

Btk (Y223) = experiment: Immunoblotting of neutrophil lysates, Btk phosphorylation; assay type: cell-based, human; conditions: 0.1 μM fMLF-stimulated neutrophils
Procedure: (§1) Neutrophils incubated with bletinib or DMSO at 37° C. for 5 min were stimulated with 0.1 μM fMLF for 30 s. The proteins were separated from neutrophil lysates through electrophoresis (12% sodium dodecyl sulphate-polyacrylamide gel electrophoresis) and then transferred to nitrocellulose membranes. The target proteins were identified through immunoblotting with specific antibodies against p38, p-p38, Akt, p-Akt S473, ERK, p-ERK, INK, p-JNK, Src, p-SFKs Y416, p-Src Y416, Lyn, p-Lyn (Y396), Fgr, p-Fgr (Y412), Hck, p-Hck (Y410), Btk, p-Btk Y223, Vav, and p-Vav (Y174) as well as with HRP-conjugated secondary anti-rabbit antibody (Cell Signaling Technology). The signal intensity was detected and quantified using the UVP BioSpectrum Imaging System (Analytik Jena, USA).

p-SFKs Y416 = experiment: Immunoblotting of neutrophil lysates, SFKs phosphorylation; assay type: cell-based, human; conditions: 10 μM bletinib; 0.1 μM fMLF
Procedure: as §1

Lyn (Y396) = experiment: Immunoblotting of neutrophil lysates, Lyn phosphorylation; assay type: cell-based, human; conditions: 0.1 μM fMLF-stimulated neutrophils
Procedure: as §1

human neutrophils [1] = experiment: NET photography (immunofluorescence and scanning electron microscopy); assay type: cell-based; conditions: 10 nM PMA; 1-10 μM bletinib
Procedure: Neutrophils (3×10^5 cells/mL) were incubated with DMSO or bletinib for 10 min before being activated with 10 nM PMA for 2 h. Neutrophils were fixed with 4% paraformaldehyde and treated with 5% goat serum blocking buffer for 1 h and then treated with […] anti-MPO (Abcam) and 5 μg/mL anti-NE (Merck Millipore) antibodies for 1 h. These cells were then treated with the Alexa 488 or 568-labelled secondary goat anti-rabbit antibody for another 1 h. Thereafter, the cells were washed with PBS and treated with 1 ng/mL Hoechst 33342 and ProLong Gold antifade reagent (Invitrogen, CA, USA). Immunofluorescence microscopy and scanning electron microscopy were both used to observe the NET formation of activated neutrophils.

human neutrophils [2] = experiment: Neutrophil migration, microchemotaxis chamber; assay type: cell-based
Procedure: A microchemotaxis chamber with 3-μm filters (Millipore) was used to evaluate chemotactic migration of neutrophils. Neutrophils (5×10^6 cells/mL) treated with bletinib or DMSO for 5 min were placed in the top chamber, and 0.1 μM fMLF was added into the bottom chamber. The number of neutrophils that migrated from the top to the bottom chamber after incubation at 5% CO2 for 1 h was counted on a MoxiZ automatic cell counter (ORFLO).

Fgr = Fgr (Homo sapiens, UniProt P09769); experiment: Cell-free ADP-Glo kinase assay, Fgr; assay type: biochemical; conditions: 1-10 μM bletinib or 0.1-3 μM PP2; 125 μM ATP; concentration-dependent
Sequence of Fgr (P09769 whole entry): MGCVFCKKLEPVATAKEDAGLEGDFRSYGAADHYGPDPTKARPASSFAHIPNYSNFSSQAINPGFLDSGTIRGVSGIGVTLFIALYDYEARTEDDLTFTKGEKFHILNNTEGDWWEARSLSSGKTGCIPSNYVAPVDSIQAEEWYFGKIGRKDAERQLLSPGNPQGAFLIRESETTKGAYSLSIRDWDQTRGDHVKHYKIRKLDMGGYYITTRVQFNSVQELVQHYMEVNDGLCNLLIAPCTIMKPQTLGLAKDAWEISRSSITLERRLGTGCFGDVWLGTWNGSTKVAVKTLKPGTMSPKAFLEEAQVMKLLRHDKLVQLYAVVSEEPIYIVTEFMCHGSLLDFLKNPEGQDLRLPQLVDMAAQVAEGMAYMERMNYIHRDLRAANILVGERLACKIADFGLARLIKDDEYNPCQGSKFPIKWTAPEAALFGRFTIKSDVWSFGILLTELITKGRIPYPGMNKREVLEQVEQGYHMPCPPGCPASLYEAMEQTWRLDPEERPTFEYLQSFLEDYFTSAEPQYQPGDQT
Procedure: (§2) The kinase activity of SFKs was assessed using an ADP-Glo kinase assay kit (Promega, Fitchburg, USA) according to manufacturer instructions. […] The ADP-Glo reagent was used to end the kinase reaction and remove the remnant ATP; next, the kinase, which converted ADP to ATP, detection reagent was added and incubated for 30 min. Luciferin/luciferase luminescence was determined on an Infinite 200 Pro (Tecan, Switzerland).

human neutrophils [3] = experiment: Extracellular superoxide anion production in stimulated neutrophils (ferricytochrome c reduction); assay type: cell-based
Procedure: Extracellular superoxide anion production in activated neutrophils was assessed through the reduction of ferricytochrome c. After incubating them with Ca^2+ (1 mM) and ferricytochrome c (0.5 mg/mL) at 37° C., the isolated human neutrophils (6×10^5 cells/mL) were then incubated with 0.1% DMSO or 0.3-10 μM bletinib for 5 min. The cells were pretreated with cytochalasin B (CB, 1 or 2 μg/mL) for 3 min and stimulated with fMLF, MMK-1, or sodium fluoride (NaF), or directly activated with phorbol-12-myristate-13-acetate (PMA). The change in absorbance at 550 nm was detected continuously using a spectrophotometer (U-3010, Hitachi, Tokyo, Japan), and superoxide anion levels were calculated using a method described previously (Hwang et al., 2003 Mol. Pharmacol. 64(6), 1419-1427).

human neutrophils [4] = experiment: Neutrophil adhesion to bEnd.3 cells; assay type: cell-based; conditions: 1-10 μM bletinib; fMLF/CB
Procedure: Human neutrophils (10^6 cells/mL) were labelled with Hoechst 33342 and then incubated with DMSO or Bletinib for 5 min. After centrifugation, the cells were resuspended and activated with 0.1 μM fMLF/1 μg/mL CB for 10 min before incubation with bEnd.3 cells at 37° C. for 30 min. After they were washed with HBSS, the cells were fixed with 4% paraformaldehyde and the neutrophils that adhered to the bEnd.3 cells were detected and quantified on a motorised inverted microscope (Olympus, Japan).
Adhesion and transmigration are both crucial steps in the neutrophil recruitment cascade during inflammation. In this example, to examine whether bletinib would interfere the adhesion and transmigration process, human neutrophils (10^6 cells/mL) were first labeled with Hoechst 33342, then pre-treated with bletinib (1-10 μM) and followed by stimulation with fMLF, then incubated with bEnd.3 cells in 37° C. for 30 min. […] Furthermore, IL-8 served as a chemotactic factor for the attraction of neutrophils.

BALB/c mice = experiment: LPS-induced mortality model in mice; assay type: in vivo; conditions: 25 mg/Kg bletinib; LPS 5 mg/Kg; monitored 5 days; log-rank p=0.0085
Procedure: For the LPS-induced mortality model, mice were intraperitoneally injected with a single 50-μL dose of LPS (from Escherichia coli O111:B4; 5 mg/kg) or 0.9% saline (vehicle alone group). The mice were monitored for 5 days to determine the survival rate.

Hck (Y410) = experiment: Immunoblotting of neutrophil lysates, Hck phosphorylation; assay type: cell-based, human; conditions: 0.1 μM fMLF-stimulated neutrophils
Procedure: as §1

Hck = Hck (Homo sapiens, UniProt P08631); experiment: Cell-free ADP-Glo kinase assay, Hck; assay type: biochemical; conditions: 1-10 μM bletinib or 0.1-3 μM PP2; 125 μM ATP; concentration-dependent
Sequence of Hck (P08631 whole entry): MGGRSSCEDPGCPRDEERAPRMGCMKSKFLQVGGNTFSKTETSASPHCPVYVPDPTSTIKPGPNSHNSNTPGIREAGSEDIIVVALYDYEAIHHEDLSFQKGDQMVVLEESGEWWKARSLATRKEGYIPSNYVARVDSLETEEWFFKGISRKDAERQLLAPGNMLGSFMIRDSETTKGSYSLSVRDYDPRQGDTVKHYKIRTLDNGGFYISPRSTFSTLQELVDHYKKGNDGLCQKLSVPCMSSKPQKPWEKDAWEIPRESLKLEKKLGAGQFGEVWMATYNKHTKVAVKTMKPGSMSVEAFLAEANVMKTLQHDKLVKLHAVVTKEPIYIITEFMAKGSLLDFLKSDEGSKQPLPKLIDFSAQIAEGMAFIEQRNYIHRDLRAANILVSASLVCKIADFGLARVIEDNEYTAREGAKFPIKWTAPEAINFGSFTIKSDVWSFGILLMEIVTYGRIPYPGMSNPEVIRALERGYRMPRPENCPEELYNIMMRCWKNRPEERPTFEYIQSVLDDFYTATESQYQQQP
Procedure: as §2

Vav (Y174) = experiment: Immunoblotting of neutrophil lysates, Vav phosphorylation; assay type: cell-based, human; conditions: 0.1 μM fMLF-stimulated neutrophils
Procedure: as §1

In the case of `COc1cc(O)cc(CCc2c(Cc3ccc(O)cc3)ccc(O)c2Cc2ccc(O)cc2)c1` [bletinib, 3,3′-dihydroxy-2′,6′-bis(p-hydroxybenzyl)-5-methoxybibenzyl], the “expression of CD11b in fMLF-stimulated human neutrophils” value (CD11b (integrin αM); 1-10 μM bletinib, 0.1 μM fMLF/CB) was “significantly attenuated”, the “IL-8-induced CD11b expression” value (CD11b (integrin αM); IL-8, data not shown) was “restrained” and the “phosphorylation of Btk (Y223)” value (Btk (Y223)) was “significantly inhibited”. For the same compound, the “phosphorylation of SFKs” value (p-SFKs Y416) was “significantly inhibited”, the “phosphorylation of Lyn (Y396)” value (Lyn (Y396)) was “significantly inhibited” and the “NET formation, immunofluorescent staining and scanning electron microscopy images” value (human neutrophils [1]) was “effectively inhibited”. The “fMLF-induced transwell migration of neutrophils” value (human neutrophils [2]; 1-10 μM bletinib, 0.1 μM fMLF) was “significantly reduced”, the IL-8-induced neutrophil migration (human neutrophils [2]; IL-8, data not shown) was “inhibited” and the “kinase activity of Fgr” value (Fgr) was “inhibited”. The pIC50 (human neutrophils [3]; Homo sapiens, Neutrophil, fMLF stimulation, bletinib preincubated 5 min, read-out: superoxide anion produced by fMLF-activated human neutrophils, IC50) was 6.21, the “superoxide anion release from neutrophils stimulated by MMK-1” value (human neutrophils [3]; MMK-1 stimulation) was “attenuated” and the “superoxide anion release from neutrophils stimulated by sodium fluoride (NaF)” value (human neutrophils [3]; NaF stimulation) was “attenuated”. For the same compound, the “superoxide anion release from neutrophils stimulated by PMA” value (human neutrophils [3]; PMA stimulation) was “attenuated”, the “adhesion function of fMLF-activated neutrophils (adhered on bEnd.3 cells)” value (human neutrophils [4]) was “inhibited” and the “survival time of LPS-primed mice” value (BALB/c mice) was “significantly prolonged”. The “phosphorylation of Hck (Y410)” value (Hck (Y410)) was “significantly inhibited”, the “kinase activity of Hck” value (Hck) was “inhibited” and the “phosphorylation of Vav (Y174)” value (Vav (Y174)) was “significantly inhibited”.
